Results taken from PubChem BioAssay AID256 (DTP/NCI, 2004).
Several values for one entry are separate records, joined by “and”; a condition that tells them apart may be missing. Equal values may be shown once. Toxic doses and inconclusive results are not listed.

Test system: CD2F1 mice, L1210 leukemia ip, survival T/C
Experiment: NCI In Vivo Anticancer Drug Screen. Data for tumor model L1210 Leukemia (intraperitoneal) in CD2F1 (CDF1) mice
Conditions: higher = longer survival
Procedure, shortened: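 Tumor-bearing mice (transplanted tumor) were split into treated and vehicle control groups, and the measured endpoint of each treated group was divided by that of its vehicle controls.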

[1] = endpoint: mean survival time, dose: 200.0 mg/kg/injection, schedule: Q01DX009 (ip), vehicle: other
[2] = endpoint: mean survival time, dose: 400.0 mg/kg/injection, schedule: Q01DX001 (ip), vehicle: other
[3] = endpoint: mean survival time, dose: 100.0 mg/kg/injection, schedule: Q01DX009 (ip), vehicle: saline with Tween-80
[4] = endpoint: mean survival time, dose: 200.0 mg/kg/injection, schedule: Q01DX009 (ip), vehicle: saline with Tween-80
[5] = endpoint: mean survival time, dose: 400.0 mg/kg/injection, schedule: Q01DX009 (ip), vehicle: saline with Tween-80
[6] = endpoint: mean survival time, dose: 12.5 mg/kg/injection, schedule: Q01DX009 (ip), vehicle: other
[7] = endpoint: mean survival time, dose: 25.0 mg/kg/injection, schedule: Q01DX009 (ip), vehicle: other
[8] = endpoint: mean survival time, dose: 50.0 mg/kg/injection, schedule: Q01DX009 (ip), vehicle: other
[9] = endpoint: mean survival time, dose: 100.0 mg/kg/injection, schedule: Q01DX009 (ip), vehicle: other
[10] = endpoint: mean survival time, dose: 100.0 mg/kg/injection, schedule: Q04DX003 (ip), vehicle: other
[11] = endpoint: mean survival time, dose: 100.0 mg/kg/injection, schedule: Q04DX002 (ip), vehicle: saline with Tween-80

## [N-]=[N+]=CC(=O)NCC(=O)NCCO
endpoint: mean survival time, dose: 50.0 mg/kg/injection, schedule: Q01DX001 (ip), vehicle: other
  T/C: 101 % of control
endpoint: mean survival time, dose: 100.0 mg/kg/injection, schedule: Q01DX001 (ip), vehicle: other
  T/C: 103 % of control
endpoint: mean survival time, dose: 200.0 mg/kg/injection, schedule: Q01DX001 (ip), vehicle: other
  T/C: 106 % of control
[1]
  T/C: 103 % of control
[2]
  T/C: 109 % of control
endpoint: mean survival time, dose: 600.0 mg/kg/injection, schedule: Q01DX009 (ip), vehicle: other
  T/C: 121 % of control
endpoint: mean survival time, dose: 1000.0 mg/kg/injection, schedule: Q01DX009 (ip), vehicle: other
  T/C: 114 % of control

## CC(=O)Nc1ccc(OC(=O)Nc2ccc(F)c(Cl)c2)cc1
[3]
  T/C: 98 % of control
[4]
  T/C: 93 % of control
[5]
  T/C: 110 % of control

## COc1cccc2c1C(=O)c1c(O)c3c(c(O)c1C2=O)C[C@@](O)(C(=O)COC(=O)c1cccnc1)C[C@@H]3OC1CC(N)C(O)C(C)O1 (stereo partly specified)
endpoint: mean survival time, dose: 0.25 mg/kg/injection, schedule: Q01DX009 (ip), vehicle: water
  T/C: 104 % of control
endpoint: mean survival time, dose: 0.4 mg/kg/injection, schedule: Q01DX009 (ip), vehicle: saline with Tween-80
  T/C: 120 % of control
endpoint: mean survival time, dose: 0.5 mg/kg/injection, schedule: Q01DX009 (ip), vehicle: water
  T/C: 109 % of control
endpoint: mean survival time, dose: 1.0 mg/kg/injection, schedule: Q01DX009 (ip), vehicle: water
  T/C: 122 % of control
endpoint: mean survival time, dose: 1.5 mg/kg/injection, schedule: Q01DX009 (ip), vehicle: saline
  T/C: 168 % of control
endpoint: mean survival time, dose: 2.0 mg/kg/injection, schedule: Q01DX009 (ip), vehicle: water
  T/C: 120 % of control
endpoint: mean survival time, dose: 4.0 mg/kg/injection, schedule: Q01DX009 (ip), vehicle: water
  T/C: 108 % of control

## CC(=O)OC1C(CNC(=O)N(C)N=O)OC(OC2(CNC(=O)N(C)N=O)OC(CNC(=O)N(C)N=O)C(OC(C)=O)C2OC(C)=O)C(OC(C)=O)C1OC(C)=O (stereo unspecified)
[6]
  T/C: 93 % of control
[7]
  T/C: 94 % of control
[8]
  T/C: 104 % of control
[9]
  T/C: 102 % of control
[1]
  T/C: 120 % of control

## CCCCCCC(O)CCCCCC
[9]
  T/C: 96 % of control
[10]
  T/C: 100 % of control
[1]
  T/C: 98 % of control
endpoint: mean survival time, dose: 200.0 mg/kg/injection, schedule: Q04DX003 (ip), vehicle: other
  T/C: 97 % of control
endpoint: mean survival time, dose: 400.0 mg/kg/injection, schedule: Q01DX009 (ip), vehicle: other
  T/C: 98 % of control
endpoint: mean survival time, dose: 400.0 mg/kg/injection, schedule: Q04DX003 (ip), vehicle: other
  T/C: 95 % of control

## C/C=C(\Cl)C1=CC(=O)C23CC2C2(C)COC1(O)C3(O)O2 (stereo unspecified)
endpoint: mean survival time, dose: 1.5 mg/kg/injection, schedule: Q01DX009 (ip), vehicle: saline with Tween-80
  T/C: 93 % of control
endpoint: mean survival time, dose: 3.0 mg/kg/injection, schedule: Q01DX009 (ip), vehicle: saline with Tween-80
  T/C: 93 % of control
endpoint: mean survival time, dose: 6.0 mg/kg/injection, schedule: Q01DX009 (ip), vehicle: saline with Tween-80
  T/C: 110 % of control

## C[Si](C)(C)O/C=C1/CCOC1=O
endpoint: mean survival time, dose: 12.5 mg/kg/injection, schedule: Q01DX009 (ip), vehicle: saline
  T/C: 97 % of control and 107 % of control
endpoint: mean survival time, dose: 25.0 mg/kg/injection, schedule: Q01DX009 (ip), vehicle: saline
  T/C: 106 % of control and 108 % of control
endpoint: mean survival time, dose: 50.0 mg/kg/injection, schedule: Q01DX009 (ip), vehicle: saline
  T/C: 103 % of control and 104 % of control
endpoint: mean survival time, dose: 100.0 mg/kg/injection, schedule: Q01DX009 (ip), vehicle: saline
  T/C: 104 % of control and 106 % of control
endpoint: mean survival time, dose: 200.0 mg/kg/injection, schedule: Q01DX009 (ip), vehicle: saline
  T/C: 105 % of control and 112 % of control
endpoint: mean survival time, dose: 400.0 mg/kg/injection, schedule: Q01DX009 (ip), vehicle: saline
  T/C: 113 % of control and 112 % of control

## CC1(C)CC[N+]1(C)C
endpoint: mean survival time, dose: 12.5 mg/kg/injection, schedule: Q04DX003 (ip), vehicle: saline
  T/C: 96 % of control
endpoint: mean survival time, dose: 25.0 mg/kg/injection, schedule: Q04DX003 (ip), vehicle: saline
  T/C: 102 % of control
endpoint: mean survival time, dose: 50.0 mg/kg/injection, schedule: Q04DX003 (ip), vehicle: saline
  T/C: 97 % of control

## C[N+](C)(C)c1cccc(S)c1
[11]
  T/C: 104 % of control
endpoint: mean survival time, dose: 200.0 mg/kg/injection, schedule: Q04DX002 (ip), vehicle: saline with Tween-80
  T/C: 112 % of control
endpoint: mean survival time, dose: 400.0 mg/kg/injection, schedule: Q04DX002 (ip), vehicle: saline with Tween-80
  T/C: 100 % of control

## c1ccc(NSc2ccccc2)cc1
endpoint: mean survival time, dose: 50.0 mg/kg/injection, schedule: Q01DX009 (ip), vehicle: saline with Tween-80
  T/C: 101 % of control
[3]
  T/C: 101 % of control
[4]
  T/C: 96 % of control

## COc1ccc(O)cc1
endpoint: median survival time, dose: 12.5 mg/kg/injection, schedule: Q01DX005 (ip), vehicle: saline with Tween-80
  T/C: 98 % of control
endpoint: median survival time, dose: 25.0 mg/kg/injection, schedule: Q01DX005 (ip), vehicle: saline with Tween-80
  T/C: 98 % of control
endpoint: median survival time, dose: 50.0 mg/kg/injection, schedule: Q01DX005 (ip), vehicle: saline with Tween-80
  T/C: 95 % of control
endpoint: median survival time, dose: 100.0 mg/kg/injection, schedule: Q01DX005 (ip), vehicle: saline with Tween-80
  T/C: 103 % of control
endpoint: median survival time, dose: 200.0 mg/kg/injection, schedule: Q01DX005 (ip), vehicle: saline with Tween-80
  T/C: 116 % of control

## COc1ccc2c(c1)CCn1c(C)c(COC(=O)NC(C)C)c(COC(=O)NC(C)C)c1-2
endpoint: median survival time, dose: 3.12 mg/kg/injection, schedule: Q01DX009 (ip), vehicle: distilled water + Tween-80
  T/C: 120 % of control
endpoint: median survival time, dose: 3.13 mg/kg/injection, schedule: Q01DX009 (ip), vehicle: distilled water + Tween-80
  T/C: 123 % of control
endpoint: median survival time, dose: 6.25 mg/kg/injection, schedule: Q01DX009 (ip), vehicle: distilled water + Tween-80
  T/C: 114 % of control
endpoint: median survival time, dose: 25.0 mg/kg/injection, schedule: Q01DX009 (ip), vehicle: distilled water + Tween-80
  T/C: 152 % of control and 157 % of control
endpoint: median survival time, dose: 50.0 mg/kg/injection, schedule: Q01DX009 (ip), vehicle: distilled water + Tween-80
  T/C: 114 % of control

## C=C(Br)CNC(=O)NCCN1CCOCC1
[3]
  T/C: 97 % of control
[4]
  T/C: 92 % of control
[5]
  T/C: 89 % of control

## ON1C=CC2C=CC1c1ccccc12 (stereo unspecified)
endpoint: median survival time, dose: 50.0 mg/kg/injection, schedule: Q04DX002 (ip), vehicle: saline with Tween-80
  T/C: 100 % of control
endpoint: median survival time, dose: 100.0 mg/kg/injection, schedule: Q04DX002 (ip), vehicle: saline with Tween-80
  T/C: 88 % of control
endpoint: median survival time, dose: 200.0 mg/kg/injection, schedule: Q04DX002 (ip), vehicle: saline with Tween-80
  T/C: 88 % of control

## S=P(c1ccccc1)(N1CC1)N1CC1
endpoint: mean survival time, dose: 6.25 mg/kg/injection, schedule: Q01DX009 (ip), vehicle: Klucel (hydroxypropylcellulose) (HPC)
  T/C: 102 % of control
endpoint: mean survival time, dose: 6.25 mg/kg/injection, schedule: Q01DX009 (ip), vehicle: other
  T/C: 95 % of control
endpoint: mean survival time, dose: 12.5 mg/kg/injection, schedule: Q01DX009 (ip), vehicle: Klucel (hydroxypropylcellulose) (HPC)
  T/C: 102 % of control
[6]
  T/C: 118 % of control and 104 % of control
endpoint: mean survival time, dose: 22.0 mg/kg/injection, schedule: Q01DX009 (ip), vehicle: other
  T/C: 115 % of control
endpoint: mean survival time, dose: 25.0 mg/kg/injection, schedule: Q01DX009 (ip), vehicle: Klucel (hydroxypropylcellulose) (HPC)
  T/C: 104 % of control
[7]
  T/C: 106 % of control
endpoint: mean survival time, dose: 25.0 mg/kg/injection, schedule: Q04DX002 (ip), vehicle: saline with Tween-80
  T/C: 96 % of control
endpoint: mean survival time, dose: 44.0 mg/kg/injection, schedule: Q04DX002 (ip), vehicle: other
  T/C: 97 % of control
endpoint: mean survival time, dose: 44.0 mg/kg/injection, schedule: Q04DX003 (ip), vehicle: other
  T/C: 106 % of control
endpoint: mean survival time, dose: 50.0 mg/kg/injection, schedule: Q01DX009 (ip), vehicle: Klucel (hydroxypropylcellulose) (HPC)
  T/C: 118 % of control
[8]
  T/C: 123 % of control
endpoint: mean survival time, dose: 50.0 mg/kg/injection, schedule: Q04DX002 (ip), vehicle: saline with Tween-80
  T/C: 103 % of control and 106 % of control
endpoint: mean survival time, dose: 66.0 mg/kg/injection, schedule: Q04DX002 (ip), vehicle: other
  T/C: 109 % of control
endpoint: mean survival time, dose: 66.0 mg/kg/injection, schedule: Q04DX003 (ip), vehicle: other
  T/C: 118 % of control
endpoint: mean survival time, dose: 75.0 mg/kg/injection, schedule: Q01DX009 (ip), vehicle: other
  T/C: 101 % of control
endpoint: mean survival time, dose: 100.0 mg/kg/injection, schedule: Q04DX002 (ip), vehicle: other
  T/C: 115 % of control
[11]
  T/C: 117 % of control
[10]
  T/C: 108 % of control
endpoint: mean survival time, dose: 118.0 mg/kg/injection, schedule: Q01DX001 (ip), vehicle: other
  T/C: 100 % of control
endpoint: mean survival time, dose: 150.0 mg/kg/injection, schedule: Q04DX002 (ip), vehicle: other
  T/C: 103 % of control
endpoint: mean survival time, dose: 178.0 mg/kg/injection, schedule: Q01DX001 (ip), vehicle: other
  T/C: 97 % of control
endpoint: mean survival time, dose: 266.0 mg/kg/injection, schedule: Q01DX001 (ip), vehicle: other
  T/C: 109 % of control
[2]
  T/C: 100 % of control
